Experimental findings from patent US20100061948A1, “COMPOSITION FOR SKIN WHITENING COMPRISING ARTEMISININE” (priority 2007, published 2010) are described below.

SMILES strings stand for the structures.

The test system of series [1] is Murine melanoma (B16 F10) cells. Kind of series: Inhibitory effect on melanin synthesis in murine B16 melanoma cells. It counts as cell-based. The following applies: Mus musculus, 72 h, 3 days, read-out: Inhibition rate of melanin synthesis (%). On the procedure:
In order to confirm the inhibitory effect of artemisinine on melanin synthesis, murine B16 melanoma cells were used to perform the following experiment.
Artemisinine used in the present experiment was purchased from Sigma.
Murine melanoma (B16 F10) cells were inoculated on 6 well plates containing DMEM media supplemented with 10% FBS (fetal bovine serum) (1×10^5 per well), and cultured in 5% CO2 at37° C. until reaching about 80% confluency. Then, media was removed from the cells, replaced with fresh media, and cultured in 5% CO2 at 37° C. for 3 days. […] Media was removed from the cells, and the cells were washed with PBS (phosphate buffered saline), followed by trypsin treatment. The cells were recovered, and counted using a hemocytometer. Then, the cells were centrifuged at 5,000 to 10,000 rpm for 10 min, and the supernatant was removed to obtain a pellet. The pellet was dried at 60° C., and suspended in 100 […] of 1 M sodium hydroxide solution containing 10% DMSO in a 60° C. water bath to obtain melanin in the cells. Absorbance was determined at 490 nm using a microplate reader to assess the melanin content per cell. As a control group, a known inhibitor of melanin synthesis, arbutin, was used.

Series [2] deals with brown guinea pigs (Tortoiseshell guinea pigs). The series can be described thus: Whitening effect on UV-induced pigmentation in brown guinea pigs (chromameter L*). The settings on record: topical once or twice a day for 50 days, UV-pigmented guinea pig skin. It counts as in vivo. From the text: In order to confirm the whitening effect of artemisinine in animals, brown guinea pigs (Tortoiseshell guinea pigs), which are known to increase pigmentation upon exposure to UV like human, were used to perform the following experiment.
(§1) To cause pigmentation in the brown guinea pig by UV, light-shielding aluminum foil with windows of 3×3 cm^2 was adhered to hair-removed abdominal skin of brown guinea pig, and then UV light was irradiated thereon with a SE lamp (wavelength 290-320 nm, Toshiba) (total irradiation energy=1350 mJ/cm^2). After UV irradiation, the aluminum foil was removed, and then the samples (artemisinine and arbutin) were applied as follows. […] From the maximum, each sample was applied. Applications were performed once or twice a day for 50 days. The samples were dissolved and diluted in a certain solvent (a mixed solvent of propylene glycol:ethanol:water=5:3:2) and applied with a swab. Another region was applied with the solvent only as a control. Occurrence of cumulative irritation also was examined.
The degree of skin pigmentation was determined using a chromameter (MINOLTA CR2002) to evaluate the effects. L*A*B* colorimetric system is used to classify color, and an L* value was used as standard in the present invention. The L* value was corrected using white board standard, and measured more than five times at one region, repeatedly. Pigmentation was evenly distributed. Skin color differences (ΔL*) between initial application point and terminal application point were obtained by using the following Mathematical Equation 1, and then using these values, their effects of the applied samples were evaluated.
ΔL*=L*value at terminal application day−L*value at initial application day [Mathematical Equation 1]
ΔL* values were obtained at sample application region and control application region and compared. From the result, the whitening effects of the samples can be evaluated.

Series [3] concerns the target T1, tyrosinase (Mus musculus, UniProt P11344).
T1 construct: endogenous in cells; host or cells: murine melanoma B16 F10 cells
T1 sequence (P11344 19-533): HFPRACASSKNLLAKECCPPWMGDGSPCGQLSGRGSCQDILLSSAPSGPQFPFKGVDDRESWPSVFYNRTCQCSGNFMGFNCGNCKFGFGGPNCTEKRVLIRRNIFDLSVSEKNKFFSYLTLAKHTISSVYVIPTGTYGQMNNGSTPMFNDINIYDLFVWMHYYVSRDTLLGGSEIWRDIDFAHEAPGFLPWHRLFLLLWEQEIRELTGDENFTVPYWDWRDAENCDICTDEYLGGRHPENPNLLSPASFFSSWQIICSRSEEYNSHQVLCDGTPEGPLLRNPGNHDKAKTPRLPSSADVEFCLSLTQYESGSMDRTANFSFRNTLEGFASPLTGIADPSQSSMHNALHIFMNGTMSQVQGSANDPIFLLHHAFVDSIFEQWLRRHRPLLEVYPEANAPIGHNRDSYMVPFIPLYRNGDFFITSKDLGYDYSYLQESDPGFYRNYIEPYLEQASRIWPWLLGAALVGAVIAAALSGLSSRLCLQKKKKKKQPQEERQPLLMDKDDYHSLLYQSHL
The series can be described thus: Inhibitory effect on tyrosinase activity in murine B16 melanoma cells. The settings on record: B16 F10 cells, 3 days, read-out: Inhibition rate of tyrosinase activity (%). It counts as cell-based. How it is done:
In order to confirm the inhibitory effect of artemisinine on tyrosinase activity, murine B16 melanoma cells were used to perform the following experiment.
Murine melanoma (B16 F10) cells were inoculated on 6 well plates containing DMEM media supplemented with 10% FBS (1×10^5 per well), and cultured in 5% CO2 at 37° C. until reaching about 80% confluency. Then, media was removed from the cells, replaced with fresh media, and cultured in 5% CO2 at37° C. for 3 days. […] Media was removed from the cells, and the cells were washed with PBS, followed by trypsin treatment. The cells were recovered, and counted using a hematocytometer. Then, the cells were centrifuged at 5,000 to 10,000 rpm for 10 min, and the supernatant was removed to obtain a pellet. The pellet was suspended in a lysis buffer, and centrifuged at 12,000 rpm for 10 min to collect the supernatant. Absorbance was determined at 492 nm using a microplate reader to assess the tyrosinase activity per cell. As a control group, arbutin was used.

Series [4] deals with Murine melanoma (B16 F10) cells. Kind of series: Cytotoxicity at treatment concentrations in B16 F10 cells. It counts as cell-based. The following applies: 10 μM, 50 μM and 100 μM.
In series [5] the test system is brown guinea pigs (Tortoiseshell guinea pigs). The series can be described thus: Cumulative irritation examined in brown guinea pigs. The series is classed as in vivo. The following applies: topical application for 50 days, guinea pig.
Excerpt: as §1

On to `OC[C@H]1O[C@@H](Oc2ccc(O)cc2)[C@H](O)[C@@H](O)[C@@H]1O` [Arbutin, arbutin], for which the inhibition (as a rule, how much of the control response was suppressed) at 100 µM in series [1] came out at 52%; in series [3], 45%. Moreover, the “Whitening effect (ΔL*)” value in series [2] (1.0 %) is 0.55.
`C[C@@H]1CC[C@H]2[C@@H](C)C(=O)O[C@@H]3O[C@@]4(C)CC[C@@H]1[C@]32OO4` [Artemisinine, artemisinine]: the inhibition at 10 µM in series [1] (10 μM) was determined as 22%; in series [3] (10 μM), 19%. Further, the values for the inhibition at 50 µM in series [1] (50 μM) and in series [3] (50 μM) were 50% and 38%, respectively. Further, the inhibition at 100 µM in series [1] came to 65%; in series [3], 67%. In addition, the “Whitening effect (ΔL*)” value in series [2] (0.2 %) was determined as 0.40; in series [2] (1.0 %), 0.65. In addition, the Cytotoxicity result in series [4] is “no cytotoxicity”. Also, in series [5], the Cumulative irritation result was “no cumulative irritation”.
